Assay results reported in ChEMBL document CHEMBL4190187, “Discovery of pyrazolopyrimidine derivatives as novel inhibitors of ataxia telangiectasia and rad3 related protein (ATR)” (Bioorg Med Chem Lett, 2017).

Columns and labels:
[1] = target: SRSF protein kinase 3 (Homo sapiens) (UniProt Q9UPE1); assay: Inhibition of recombinant full-length human MSSK1 at 1 uM using ERMRPRKRQGSVRRRV as substrate after 40 mins in presence of [gamma-33P]ATP by scintillation counting method
[2] = target: Protein-tyrosine kinase 6 (Homo sapiens) (UniProt Q13882); assay: Inhibition of recombinant full-length human BRK at 1 uM using poly(Glu,Tyr) 4:1 as substrate after 40 mins in presence of [gamma-33P]ATP by scintillation counting method
[3] = target: Serine/threonine-protein kinase PAK 1 (Homo sapiens) (UniProt Q13153); assay: Inhibition of recombinant human PAK1 (150 to end residues) at 1 uM using RRRLSFAEPG as substrate after 40 mins in presence of [gamma-33P]ATP by scintillation counting method
[4] = target: 3-phosphoinositide-dependent protein kinase 1 (Homo sapiens) (UniProt O15530); assay: Inhibition of recombinant human PDK1 (52 to end residues) at 1 uM using KTFCGTPEYLAPEVRREPRILSEEEQEMFRDFDYIADWC (PDKtide) as substrate after 40 mins in presence of [gamma-33P]ATP by scintillation counting method
[5] = test system: PI3-kinase p110-alpha/p85-alpha (Homo sapiens), P27986+P42336 [E545K]; assay: Inhibition of recombinant full-length human p110a E545K mutant/p85a at 1 uM using phosphatidylinositol 4,5-bisphosphate as substrate after 40 mins in presence of [gamma-33P]ATP by scintillation counting method; assay type: protein-complex assay
[6] = target: Protein kinase C eta type (Homo sapiens) (UniProt P24723); assay: Inhibition of recombinant human PKCeta (2 to end residues) at 1 uM using ERMRPRKRQGSVRRRV as substrate after 40 mins in presence of [gamma-33P]ATP by scintillation counting method
[7] = target: Phosphatidylinositol 4,5-bisphosphate 3-kinase catalytic subunit gamma isoform (Homo sapiens) (UniProt P48736); assay: Inhibition of recombinant full-length human p120g at 1 uM using phosphatidylinositol-4,5-bisphosphate as substrate after 40 mins in presence of [gamma-33P]ATP by scintillation counting method
[8] = target: Calcium/calmodulin-dependent protein kinase kinase 2 (Homo sapiens) (UniProt Q96RR4); assay: Inhibition of recombinant full-length human CAMKK2 at 1 uM using […] after 40 mins in presence of [gamma-33P]ATP by scintillation counting method
[9] = target: DNA-dependent protein kinase catalytic subunit (Homo sapiens) (UniProt P78527); assay: Inhibition of recombinant full-length human DNA-PK at 1 uM using GST-cMyc-p53 as substrate after 40 mins in presence of [gamma-33P]ATP by scintillation counting method
[10] = target: Phosphatidylinositol 3-kinase C2 domain-containing subunit gamma (Homo sapiens) (UniProt O75747); assay: Inhibition of recombinant human PI3KC2gamma (468 to 1203 residues) at 1 uM phosphatidylinositol/phosphatidylserine as substrate after 40 mins in presence of [gamma-33P]ATP by scintillation counting method
[11] = target: Serine/threonine-protein kinase STK11 (Homo sapiens) (UniProt Q15831); assay: Inhibition of recombinant full-length human LKB1 at 1 uM using LSNLYHQGKFLQTFCGSPLYRRR as substrate after 40 mins in presence of [gamma-33P]ATP by scintillation counting method
[12] = target: Tyrosine-protein kinase JAK2 (Homo sapiens) (UniProt O60674); assay: Inhibition of recombinant human JAK2 (808 to end residues) at 1 uM using KTFCGTPEYLAPEVRREPRILSEEEQEMFRDFDYIADWC as substrate after 40 mins in presence of [gamma-33P]ATP by scintillation counting method
[13] = target: ALK tyrosine kinase receptor (Homo sapiens) (UniProt Q9UM73); assay: Inhibition of recombinant human ALK (1058 to end residues) at 1 uM using KKKSPGEYVNIEFG as substrate after 40 mins in presence of [gamma-33P]ATP by scintillation counting method
[14] = test system: Angiopoietin-1 receptor (Homo sapiens), Q02763 [Y897S]; assay: Inhibition of recombinant activated human Tie2 Y897S mutant (771 to end residues) at 1 uM using EFPIYDFLPAKKK as substrate after 40 mins in presence of [gamma-33P]ATP by scintillation counting method
[15] = target: Mitogen-activated protein kinase 9 (Homo sapiens) (UniProt P45984); assay: Inhibition of recombinant full-length human JNK2alpha2 at 1 uM using ATF2 as substrate after 40 mins in presence of [gamma-33P]ATP by scintillation counting method
[16] = target: 5'-AMP-activated protein kinase catalytic subunit alpha-1 (Homo sapiens) (UniProt Q13131); assay: Inhibition of recombinant full-length human AMPKalpha1 at 1 uM using AMARAASAAALARRR as substrate after 40 mins in presence of [gamma-33P]ATP by scintillation counting method
[17] = target: [Pyruvate dehydrogenase (acetyl-transferring)] kinase isozyme 4, mitochondrial (Homo sapiens) (UniProt Q16654); assay: Inhibition of recombinant full-length human PDHK4 at 1 uM using KKKYHGHSMSDPGVSYRT as substrate after 40 mins in presence of [gamma-33P]ATP by scintillation counting method
[18] = target: Calcium/calmodulin-dependent protein kinase type IV (Homo sapiens) (UniProt Q16566); assay: Inhibition of recombinant full-length human CAMK4 at 1 uM using […] after 40 mins in presence of [gamma-33P]ATP by scintillation counting method
[19] = target: Tyrosine-protein kinase Mer (Homo sapiens) (UniProt Q12866); assay: Inhibition of recombinant human MER (557 to 882 residues) at 1 uM using GGMEDIYFEFMGGKKK as substrate after 40 mins in presence of [gamma-33P]ATP by scintillation counting method
[20] = target: Leukocyte tyrosine kinase receptor (Homo sapiens) (UniProt P29376); assay: Inhibition of recombinant human LTK (450 to end residues) at 1 uM using GEEPLYWSFPAKKK as substrate after 40 mins in presence of [gamma-33P]ATP by scintillation counting method
[21] = target: Serine/threonine-protein kinase mTOR (Homo sapiens) (UniProt P42345); assay: Inhibition of recombinant full-length human mTOR at 1 uM after 40 mins in presence of [gamma-33P]ATP by scintillation counting method
[22] = target: Protein kinase C beta type (Homo sapiens) (UniProt P05771); assay: Inhibition of recombinant human PKCbeta1 (2 to end residues) at 1 uM using histone H1 as substrate after 40 mins in presence of [gamma-33P]ATP by scintillation counting method
[23] = target: Ephrin type-B receptor 2 (Homo sapiens) (UniProt P29323); assay: Inhibition of recombinant human EPHB2 (560 to end residues) at 1 uM using poly(Glu,Tyr) 4:1 as substrate after 40 mins in presence of [gamma-33P]ATP by scintillation counting method
Mus musculus = assay: Clearance in mouse at 2 mg/kg, iv or 10 mg/kg, po; assay type: ADME, organism-based; conditions: in vivo

Chain of Leukocyte tyrosine kinase receptor (Homo sapiens) (P29376 whole entry): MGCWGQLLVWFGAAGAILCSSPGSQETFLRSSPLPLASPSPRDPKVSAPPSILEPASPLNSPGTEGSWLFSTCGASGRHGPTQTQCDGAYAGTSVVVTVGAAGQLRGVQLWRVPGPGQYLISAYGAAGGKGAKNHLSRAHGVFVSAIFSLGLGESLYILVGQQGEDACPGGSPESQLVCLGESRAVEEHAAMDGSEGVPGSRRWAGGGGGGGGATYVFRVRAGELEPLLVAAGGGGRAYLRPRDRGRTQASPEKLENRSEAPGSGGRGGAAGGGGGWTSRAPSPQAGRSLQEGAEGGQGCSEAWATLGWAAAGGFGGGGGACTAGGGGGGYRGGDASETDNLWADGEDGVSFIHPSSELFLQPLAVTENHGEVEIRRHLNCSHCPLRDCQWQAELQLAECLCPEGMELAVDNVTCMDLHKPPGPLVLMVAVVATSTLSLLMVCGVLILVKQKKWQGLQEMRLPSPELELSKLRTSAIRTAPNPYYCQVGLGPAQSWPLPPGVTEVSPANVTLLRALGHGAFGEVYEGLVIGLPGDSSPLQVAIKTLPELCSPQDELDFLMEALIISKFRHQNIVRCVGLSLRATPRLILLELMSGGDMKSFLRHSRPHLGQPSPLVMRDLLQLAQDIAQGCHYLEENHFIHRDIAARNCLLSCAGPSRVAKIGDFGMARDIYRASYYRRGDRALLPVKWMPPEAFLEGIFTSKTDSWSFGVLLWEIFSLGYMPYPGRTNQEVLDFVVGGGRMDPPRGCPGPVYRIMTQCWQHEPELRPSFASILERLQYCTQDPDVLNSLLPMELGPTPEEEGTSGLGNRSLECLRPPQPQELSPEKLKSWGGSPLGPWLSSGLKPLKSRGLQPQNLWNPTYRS
Chain of Tyrosine-protein kinase JAK2 (Homo sapiens) (O60674 whole entry): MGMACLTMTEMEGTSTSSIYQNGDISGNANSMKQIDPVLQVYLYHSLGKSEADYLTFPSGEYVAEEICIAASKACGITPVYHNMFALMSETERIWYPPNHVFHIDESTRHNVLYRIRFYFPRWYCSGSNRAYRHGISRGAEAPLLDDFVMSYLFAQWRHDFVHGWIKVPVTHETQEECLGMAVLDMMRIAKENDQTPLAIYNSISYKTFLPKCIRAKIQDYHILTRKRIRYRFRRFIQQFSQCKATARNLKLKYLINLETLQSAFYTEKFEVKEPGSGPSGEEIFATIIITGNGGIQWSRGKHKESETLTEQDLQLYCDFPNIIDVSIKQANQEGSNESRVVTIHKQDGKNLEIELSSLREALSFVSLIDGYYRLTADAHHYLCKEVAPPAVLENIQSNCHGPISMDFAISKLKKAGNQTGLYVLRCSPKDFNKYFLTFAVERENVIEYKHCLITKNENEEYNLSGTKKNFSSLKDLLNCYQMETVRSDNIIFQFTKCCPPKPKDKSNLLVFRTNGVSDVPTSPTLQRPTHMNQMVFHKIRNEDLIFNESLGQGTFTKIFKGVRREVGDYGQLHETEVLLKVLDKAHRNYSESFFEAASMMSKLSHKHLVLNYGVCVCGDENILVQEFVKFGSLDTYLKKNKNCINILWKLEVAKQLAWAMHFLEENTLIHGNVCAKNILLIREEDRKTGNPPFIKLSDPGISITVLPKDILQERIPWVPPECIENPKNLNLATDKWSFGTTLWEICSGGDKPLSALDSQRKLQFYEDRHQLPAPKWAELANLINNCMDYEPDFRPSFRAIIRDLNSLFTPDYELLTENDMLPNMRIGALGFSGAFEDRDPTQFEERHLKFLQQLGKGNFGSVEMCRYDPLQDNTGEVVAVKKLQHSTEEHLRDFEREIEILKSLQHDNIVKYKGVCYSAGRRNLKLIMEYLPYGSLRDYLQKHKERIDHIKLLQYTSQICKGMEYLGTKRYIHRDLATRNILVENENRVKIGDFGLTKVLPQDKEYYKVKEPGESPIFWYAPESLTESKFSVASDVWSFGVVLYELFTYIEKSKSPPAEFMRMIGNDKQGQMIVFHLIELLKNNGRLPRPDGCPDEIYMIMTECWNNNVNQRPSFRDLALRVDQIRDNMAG
Chain of Mitogen-activated protein kinase 9 (Homo sapiens) (P45984 whole entry, looked up): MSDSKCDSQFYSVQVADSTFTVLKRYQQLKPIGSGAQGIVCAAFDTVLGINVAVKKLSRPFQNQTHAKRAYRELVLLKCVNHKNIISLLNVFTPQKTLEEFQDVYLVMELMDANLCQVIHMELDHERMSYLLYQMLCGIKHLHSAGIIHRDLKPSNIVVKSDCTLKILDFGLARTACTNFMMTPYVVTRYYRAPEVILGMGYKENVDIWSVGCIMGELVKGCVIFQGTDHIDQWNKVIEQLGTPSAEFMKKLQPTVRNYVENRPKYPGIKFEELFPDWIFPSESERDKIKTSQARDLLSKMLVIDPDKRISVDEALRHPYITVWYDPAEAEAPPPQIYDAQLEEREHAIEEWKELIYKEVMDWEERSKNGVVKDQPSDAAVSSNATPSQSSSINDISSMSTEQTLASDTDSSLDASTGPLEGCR
Chain of Ephrin type-B receptor 2 (Homo sapiens) (P29323 whole entry): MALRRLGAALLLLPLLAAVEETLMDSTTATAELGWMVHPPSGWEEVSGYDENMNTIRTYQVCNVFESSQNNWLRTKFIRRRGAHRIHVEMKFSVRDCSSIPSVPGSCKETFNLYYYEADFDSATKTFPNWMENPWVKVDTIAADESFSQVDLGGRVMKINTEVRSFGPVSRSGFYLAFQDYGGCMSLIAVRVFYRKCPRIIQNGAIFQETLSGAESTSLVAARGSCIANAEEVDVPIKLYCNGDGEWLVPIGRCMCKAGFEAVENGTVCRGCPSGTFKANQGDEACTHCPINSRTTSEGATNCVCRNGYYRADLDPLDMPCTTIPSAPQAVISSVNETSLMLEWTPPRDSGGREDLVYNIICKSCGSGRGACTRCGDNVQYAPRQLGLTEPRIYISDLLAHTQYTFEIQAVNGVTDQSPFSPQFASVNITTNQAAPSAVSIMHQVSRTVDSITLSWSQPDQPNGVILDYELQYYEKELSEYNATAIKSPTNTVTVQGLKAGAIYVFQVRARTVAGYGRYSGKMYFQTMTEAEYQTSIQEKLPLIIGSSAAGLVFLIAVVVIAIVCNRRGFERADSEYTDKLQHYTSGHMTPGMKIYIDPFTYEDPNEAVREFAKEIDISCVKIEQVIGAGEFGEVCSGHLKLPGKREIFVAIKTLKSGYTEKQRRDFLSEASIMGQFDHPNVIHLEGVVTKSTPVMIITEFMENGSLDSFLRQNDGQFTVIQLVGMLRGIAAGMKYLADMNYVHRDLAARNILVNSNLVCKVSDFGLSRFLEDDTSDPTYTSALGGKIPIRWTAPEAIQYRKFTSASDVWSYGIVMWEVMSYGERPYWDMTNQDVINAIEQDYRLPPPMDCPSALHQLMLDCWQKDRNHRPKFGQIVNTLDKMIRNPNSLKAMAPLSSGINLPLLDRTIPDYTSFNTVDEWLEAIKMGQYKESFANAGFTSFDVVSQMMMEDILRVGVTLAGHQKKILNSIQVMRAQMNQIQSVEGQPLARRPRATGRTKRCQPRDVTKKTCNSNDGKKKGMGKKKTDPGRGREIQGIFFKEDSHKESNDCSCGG
Chain of Calcium/calmodulin-dependent protein kinase kinase 2 (Homo sapiens) (Q96RR4 2-588 limits assumed): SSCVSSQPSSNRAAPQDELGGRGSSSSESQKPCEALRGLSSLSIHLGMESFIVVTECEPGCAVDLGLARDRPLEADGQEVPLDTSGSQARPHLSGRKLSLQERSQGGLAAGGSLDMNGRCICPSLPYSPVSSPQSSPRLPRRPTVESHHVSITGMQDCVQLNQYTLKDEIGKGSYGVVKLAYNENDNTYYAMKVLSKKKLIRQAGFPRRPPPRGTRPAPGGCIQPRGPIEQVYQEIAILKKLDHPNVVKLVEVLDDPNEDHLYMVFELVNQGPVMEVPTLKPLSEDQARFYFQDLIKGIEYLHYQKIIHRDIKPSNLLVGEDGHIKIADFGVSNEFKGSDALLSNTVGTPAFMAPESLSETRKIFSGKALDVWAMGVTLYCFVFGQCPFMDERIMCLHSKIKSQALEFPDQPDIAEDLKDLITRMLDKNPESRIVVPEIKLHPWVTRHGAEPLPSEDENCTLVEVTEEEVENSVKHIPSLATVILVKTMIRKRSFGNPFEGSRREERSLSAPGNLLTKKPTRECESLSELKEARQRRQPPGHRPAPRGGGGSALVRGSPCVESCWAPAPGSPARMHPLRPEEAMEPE
Chain of Protein-tyrosine kinase 6 (Homo sapiens) (Q13882 whole entry, looked up): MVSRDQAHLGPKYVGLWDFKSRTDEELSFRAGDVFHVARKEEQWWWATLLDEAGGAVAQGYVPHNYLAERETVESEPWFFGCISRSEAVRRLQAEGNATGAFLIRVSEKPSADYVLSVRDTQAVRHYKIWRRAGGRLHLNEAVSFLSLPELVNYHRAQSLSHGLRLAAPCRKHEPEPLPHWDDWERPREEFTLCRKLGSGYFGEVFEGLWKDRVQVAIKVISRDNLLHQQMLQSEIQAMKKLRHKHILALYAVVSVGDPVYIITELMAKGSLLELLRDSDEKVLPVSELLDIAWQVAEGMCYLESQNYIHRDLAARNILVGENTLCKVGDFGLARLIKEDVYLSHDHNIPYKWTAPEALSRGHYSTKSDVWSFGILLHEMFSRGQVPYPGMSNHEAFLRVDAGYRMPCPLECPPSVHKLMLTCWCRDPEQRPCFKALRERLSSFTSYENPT
Chain of Serine/threonine-protein kinase STK11 (Homo sapiens) (Q15831 whole entry): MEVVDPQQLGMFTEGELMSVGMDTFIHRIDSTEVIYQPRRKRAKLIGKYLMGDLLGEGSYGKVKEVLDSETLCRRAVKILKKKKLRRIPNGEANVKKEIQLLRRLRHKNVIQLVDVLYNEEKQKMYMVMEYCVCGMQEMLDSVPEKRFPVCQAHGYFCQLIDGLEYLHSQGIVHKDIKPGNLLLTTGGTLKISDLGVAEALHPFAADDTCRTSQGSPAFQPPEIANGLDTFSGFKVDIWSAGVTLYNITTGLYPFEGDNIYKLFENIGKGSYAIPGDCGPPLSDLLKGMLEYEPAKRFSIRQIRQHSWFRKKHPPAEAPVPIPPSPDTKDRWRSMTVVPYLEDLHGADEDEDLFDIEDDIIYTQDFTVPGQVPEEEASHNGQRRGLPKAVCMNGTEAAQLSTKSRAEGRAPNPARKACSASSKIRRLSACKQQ

Compound: CS(=O)(=O)c1ccc(-n2nc(-c3cnc4[nH]ccc4c3)c3c(N)ncnc32)cc1
- inhibition [1]: -8%
- inhibition [2]: 102%
- inhibition [3]: 4%
- inhibition [4]: -6%
- inhibition [5]: 8%
- inhibition [6]: 6%
- inhibition [7]: 10%
- inhibition [8]: -4%
- inhibition [9]: 59%
- inhibition [10]: 15%
- inhibition [11]: -5%
- inhibition [12]: 5%
- inhibition [13]: -4%
- inhibition [14]: 1%
- inhibition [15]: -6%
- inhibition [16]: -9%
- inhibition [17]: -1%
- inhibition [18]: 8%
- inhibition [19]: -3%
- inhibition [20]: -3%
- inhibition [21]: 65%
- inhibition [22]: 6%
- inhibition [23]: 2%
- CL (Mus musculus): 22.2 mL/min/kg
